# Measured values from EP0361645B1, “Organic hydrazine derivatives for pharmaceutical use” (ROHM AND HAAS COMPANY, priority 1988, dated 1990).
# Like-named read-outs stand apart in the source and are kept apart here.
# Molecular target: T1, ecdysone receptor (Drosophila melanogaster, UniProt P34021)
# T1 construct: endogenous in cells; host or cells: Drosophila Kr (Kc) cells, undiluted cytosolic extract
# T1 sequence (P34021 1-878): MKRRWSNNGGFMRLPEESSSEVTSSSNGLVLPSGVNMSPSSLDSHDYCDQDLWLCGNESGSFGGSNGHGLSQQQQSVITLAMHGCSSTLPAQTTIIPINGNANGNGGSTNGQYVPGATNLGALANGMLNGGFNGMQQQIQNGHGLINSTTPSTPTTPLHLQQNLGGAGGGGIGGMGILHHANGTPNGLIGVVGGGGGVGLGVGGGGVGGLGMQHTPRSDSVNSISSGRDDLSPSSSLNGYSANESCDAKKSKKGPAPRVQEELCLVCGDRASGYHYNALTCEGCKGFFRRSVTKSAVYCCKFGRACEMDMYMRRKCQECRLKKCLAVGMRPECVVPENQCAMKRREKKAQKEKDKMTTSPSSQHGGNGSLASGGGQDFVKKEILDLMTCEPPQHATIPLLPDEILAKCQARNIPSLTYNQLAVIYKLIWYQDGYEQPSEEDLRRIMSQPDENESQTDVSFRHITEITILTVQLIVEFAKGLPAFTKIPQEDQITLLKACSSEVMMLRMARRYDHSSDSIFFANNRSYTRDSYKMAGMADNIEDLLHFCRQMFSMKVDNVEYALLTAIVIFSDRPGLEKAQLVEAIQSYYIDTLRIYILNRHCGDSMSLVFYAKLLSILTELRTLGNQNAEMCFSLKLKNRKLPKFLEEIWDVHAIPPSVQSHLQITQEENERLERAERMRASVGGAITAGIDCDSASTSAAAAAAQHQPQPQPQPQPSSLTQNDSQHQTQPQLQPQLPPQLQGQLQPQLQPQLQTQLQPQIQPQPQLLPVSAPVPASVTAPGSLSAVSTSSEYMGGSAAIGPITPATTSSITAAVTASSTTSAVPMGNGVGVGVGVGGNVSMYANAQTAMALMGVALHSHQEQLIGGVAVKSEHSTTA
# T1 sequence (P20153 1-508 partner): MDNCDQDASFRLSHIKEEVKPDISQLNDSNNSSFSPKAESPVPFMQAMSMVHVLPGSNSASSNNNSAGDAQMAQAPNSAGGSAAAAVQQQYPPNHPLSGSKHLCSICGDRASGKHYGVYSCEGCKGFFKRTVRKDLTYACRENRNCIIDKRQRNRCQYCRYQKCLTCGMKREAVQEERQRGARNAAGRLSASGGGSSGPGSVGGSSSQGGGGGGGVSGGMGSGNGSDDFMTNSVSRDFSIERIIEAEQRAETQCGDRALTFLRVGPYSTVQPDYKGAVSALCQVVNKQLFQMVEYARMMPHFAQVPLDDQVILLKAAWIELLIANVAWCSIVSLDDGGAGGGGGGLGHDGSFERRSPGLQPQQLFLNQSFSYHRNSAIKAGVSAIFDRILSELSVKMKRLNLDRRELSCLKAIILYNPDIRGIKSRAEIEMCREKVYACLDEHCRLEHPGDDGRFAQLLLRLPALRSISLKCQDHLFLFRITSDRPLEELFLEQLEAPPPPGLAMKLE
# Experiment: ^3H-ponasterone A binding to / displacement from Kr cell cytosolic receptor extracts
# Protocol: The invention will now be further described by way of exemplification and by reference to the drawings in which; • Figure 1. Both 20-hydroxyecdysone and Example No. 3 induce process elaboration (A) and inhibition of cell proliferation (B) in Kr cells in a dose-dependent manner. Initial cell density was 2 X 10^6 cells/ml; after incubation of 1 ml aliquots of the cells with the compound for 48 hours the cells were triturated gently and the percentage of cells responding (with processes longer than approximately 17 um, see Cherbas et al. 189 Wilhelm Roux's Arch. 1 (1980)) and total cell density was determined by hemocytom- eter counting, relative to ethanol (1 ul)-treated controls. Determinations were in triplicate for each dose. […] Induction of acetylcholinesterase by varying concentrations of 20-hydroxyecdysone and Example No. 3. Kr cells at an initial density of 3 X 10^6 cells/ml (10 ml per sample) were incubated with the agonist for three days. After harvesting, by centrifugation at 3000 X g, the cell pellets were washed with Robb's Drosophila saline (18, 2 X 5 ml) at 4 ° C, then lysed by sonication in 1 ml of phosphate buffer (pH 7.4, I = 0.1 M) containing 0.5 M NaCI, 0.25 M EDTA and 0.5% TRITON? X-100. See Cherbas, 197 Science 275 (1977). Triton is a registered trademark of Rohm and Haas Company for a alkylaryl polyoxyethylene glycol surfactant. After centrifugation at 16,000 X g, the supernatants were assayed for acetylcholinesterase activity by an adaptation of the method of Ellman et al., 7 Biochem. Pharmacol. 88 (1961), by subtracting out any 412 nm absorbance observed in incubations in the presence of 2 X 10-5 eserine sulfate. Thus reaction mixtures contained 50 ul of enzyme extract, 20 ul eserine (blank tubes only) and 1.0 ml of 0.5 mM acetylthiocholine, 0.3 mM dithiobisnitrobenzoic acid in phosphate buffer (pH 7.4, I = 0.1 M). Incubations were at 25 ° C for two hours; reactions in active tubes were terminated by addition of eserine. Absorbance at 412 nm was then measured. Protein concentration in extracts was measured by the Biorad method. […] Scatchard plot of ^3H-ponasterone A binding to Kr cell cytosolic receptor extracts in the presence of differing concentrations of Example No. 3. Cytosolic extract preparation and ecdysteroid receptor assays were essentially as described in Sage, 111 Meth. in Enzymol. 458 (1985). Example No. 3 was added in 1 ul DMSO to 50 ul of radioligand in 10 mM Tris buffer (pH 7.2) and 50 ul of undiluted cytosol extract. After incubation overnight at 0.5 ° C, bound label was separated from free by addition of 300 ul 1% HCI-washed charcoal (Sigma) and 0.1% Dextran T70 (Pharmacia) in Tris buffer, centrifugation (13,000 X g, 3 min, 4 ° C) and liquid scintillation counting of a 300 ul aliquot of the supernatant in 15 ml Hydrofluor (National Diagnostics). Points are means of duplicate determinations. […] Relative ability of 20 hydroxyecdysone and Example No. 3 to displace ^3H-ponasterone A from cytosolic receptor extracts. Conditions were as in Figure 3 except that only 0.5 nM ponasterone A was used. • Points are means of duplicate determinations. For 20-hydroxyecdysone EC50 = 0.1 uM while for Example No. 3 EC50 = 3.0 uM. Control binding = 10 femtomoles ^3H-ponasterone A bound per mg cytosol protein. • Figure 4. Effects of 10 ppm Example No. 3 administered in artificial diet to newly ecdysed fourth instar (L4) M. sexta, monitoring (A)immunoreactive hemolymph ecdysteroid titers and (B)weight gain. Ecdysteroid titers were measured by a radioimmunoassay adapted from Warren et al., 40 Experientia 393 (1984) with Protein A-Staph. aureus suspension (Sigma) used as the reagent to separate bound from free ligand. The antiecdysone antiserum was formed by reaction of 20-hydroxyecdysone with carboxymethox- yamine resulting in the corresponding ecdysteroid 6-oxime acid. […] All samples were diluted appropriately in borate buffer pH 8.0 and assayed in duplicate. […]
SMILES,"IC50 (0.5 nM ponasterone A (Figure 3B legend), read-out: EC50, displacement of ^3H-ponasterone A from cytosolic receptor extracts) [nM]",fold greater apparent affinity than Example No. 3 (ratio of IC50) [fold],IC50 [nM],"mode of inhibition of ^3H-ponasterone A binding (Kd increases, Bmax remains the same)",fold lower apparent binding affinity than 20-hydroxyecdysone (Kr cell extracts) [fold]
"CC(C)(O)CC[C@@H](O)[C@](C)(O)[C@H]1CC[C@@]2(O)C3=CC(=O)[C@@H]4C[C@@H](O)[C@@H](O)C[C@]4(C)[C@H]3CC[C@]12C [20-hydroxyecdysone, reference compound]",100,30,,,
"CC(C)(C)N(NC(=O)c1ccccc1)C(=O)c1ccccc1 [Example No. 3, N'-t-butyl-N,N'-dibenzoylhydrazine]",,,3000,competitive mode of inhibition,30
